Laboratory results taken from article PMC9085577, “Discovery of a Potent and Orally Active Dual GPBAR1/CysLT1R Modulator for the Treatment of Metabolic Fatty Liver Disease” (Frontiers in Pharmacology, 2022).

Test system: liver transcriptome
Assay: AmpliSeq liver transcriptome of HFD-F mice
Type: in vivo
Conditions: liver, HFD-F + compound 2 vs HFD-F
Excerpt: C57BL/6J male mice were fed a high fat diet (HFD) containing 59 KJ% fat plus 1% cholesterol, w/o sugar (ssniff ® EF R/M acc. D12330 mod. 22,7 ME/kg) and fructose (HFD-F) in drinking water (42 g/L), or normal chow diet for 61 days. Food intake was estimated as the difference of weight between the offered and the remnant amount of food at 3-days intervals. The food was provided as pressed pellets and the residual spillage was not considered. After 7 days, HFD-F mice were randomized to receive HFD-F alone or in combination with compound 2 (30 mg/kg/day) by gavage until the end of the experiment. Doses of each agent were chosen according to previously published data. Mice were housed under controlled temperature (22°C) and photoperiods (12:12-h light/dark cycle), allowed unrestricted access to standard mouse chow and tap water. The experimental protocol was approved by the Animal Care and Use Committee of the University of Perugia and by the Italian Minister of Health and Istituto Superiore di Sanità (Italy) and was in agreement with the European guidelines for use of experimental animals (permission n. 583/2017-PR). The general health of the animals was monitored daily by the Veterinarian in the animal facility. At the day of sacrifice, fed mice were deeply anesthetized with a mixture of tiletamine hypochloride and zolazepam hypochloride/xylazine at a dose of 50/5 mg/kg and sacrificed before 12 a.m.
High-quality RNA was extracted from mice livers, using the Direct-zol™ RNA MiniPrep w/Zymo-Spin™ IIC Columns (Zymo Research, Irvine, CA) according to the manufacturer’s instructions. RNA quality and quantity were assessed with the Qubit® RNA HS Assay Kit and a Qubit 3.0 fluorometer (Invitrogen, Carlsbad, CA) followed by agarose gel electrophoresis. Libraries were generated using the Ion AmpliSeq™ Transcriptome Mouse Gene Expression Core Panel and Chef-Ready Kit (Comprehensive evaluation of AmpliSeq transcriptome, a whole transcriptome RNA sequencing methodology) (Thermo Fisher Scientific, Waltham, MA). Briefly, 10 ng of RNA was reverse transcribed with SuperScript™ Vilo™ cDNA Synthesis Kit (Thermo Fisher Scientific, Waltham, MA) before library preparation on the Ion Chef™ instrument (Thermo Fisher Scientific, Waltham, MA). The resulting cDNA was amplified to prepare barcoded libraries using the Ion Code™ PCR Plate, and the Ion AmpliSeq™ Transcriptome Mouse Gene Expression Core Panel (Thermo Fisher Scientific, Waltham, MA), Chef-Ready Kit, according to the manufacturer’s instructions. Barcoded libraries were combined to a final concentration of 100 p.m., and used to prepare Template-Positive Ion Sphere™ (Thermo Fisher Scientific, Waltham, MA) Particles to load on Ion 540™ Chips, using the Ion 540™ Kit-Chef (Thermo Fisher Scientific, Waltham, MA). Sequencing was performed on an Ion S5™ Sequencer with Torrent Suite™ Software v6 (Thermo Fisher Scientific, Waltham, MA). The analyses were performed with a range of fold <−2 and >+2 and a p value <0.05, using Transcriptome Analysis Console Software (version 4.0.1), certified for AmpliSeq analysis (Thermo-Fisher). The transcriptomic data have been deposited as dataset on Mendeley data repository (reference number linking to the repository: Fiorucci, Stefano; Biagioli, Michele; Marchianò, Silvia; Di Giorgio, Cristina (2021), “Discovery of potent dual GPBAR1/CysLT1R modulator for the treatment of metabolic fatty liver disease,” Mendeley Data, V1, doi: 10.17632/6dnrk9fc72.1).

With `O=C(O)c1cccc(-c2ccc(OCc3ccc4ccccc4n3)cc2)c1` [Compound 2, 4'-(quinolin-2-ylmethoxy)-[1,1′-biphenyl]-3-carboxylic acid] the “Gm31649 transcript Fold Change” value was 2.82, the “Gm36796 transcript Fold Change” value was -2.15 and the “Gnat1 transcript Fold Change” value was -2.26. The “Gngt1 transcript Fold Change” value was -2.64, the “Gpnmb transcript Fold Change” value was -3.95 and the “Hnf4aos transcript Fold Change” value was 2.36. The “Hnrnpa0 transcript Fold Change” value was -2.58, the “Hspa5 transcript Fold Change” value was -2.37 and the “Igip transcript Fold Change” value was -2.32. For the same compound, the “Il1b transcript Fold Change” value was -2.2, the “Il1rn transcript Fold Change” value was -2.12 and the “Insig2 transcript Fold Change” value was -3.18. For the same compound, the “Itgam transcript Fold Change” value was -5.37, the “Kif20a transcript Fold Change” value was -2.25 and the “LOC108167447 transcript Fold Change” value was 2.42. The “LOC108168323 transcript Fold Change” value was -2.25, the “Lactb2 transcript Fold Change” value was -2.04 and the “Ly6d transcript Fold Change” value was -4.62. For the same compound, the “Meg3 transcript Fold Change” value was 2.02, the “Mettl9 transcript Fold Change” value was -2.22 and the “Mki67 transcript Fold Change” value was -2.36. The “Mogat1 transcript Fold Change” value was -2.13, the “Mthfd2 transcript Fold Change” value was -2.03 and the “Mvd transcript Fold Change” value was -2.06. For the same compound, the “Nat8 transcript Fold Change” value was 2.38, the “Neat1 transcript Fold Change” value was -2.87 and the “Npas2 transcript Fold Change” value was -3.98. The “Nr4a1 transcript Fold Change” value was -2.25, the “Nrep transcript Fold Change” value was 2.34 and the “Nuak2 transcript Fold Change” value was 2.15. The “Pcbp1 transcript Fold Change” value was -4.32, the “Pcp4l1 transcript Fold Change” value was 2.55 and the “Pdilt transcript Fold Change” value was 3.33. The “Pdpn transcript Fold Change” value was -2.04, the “Per3 transcript Fold Change” value was 4.98 and the “Plau transcript Fold Change” value was -4.02. For the same compound, the “Plaur transcript Fold Change” value was -2.77, the “Pld6 transcript Fold Change” value was 2.03 and the “Plekhg3 transcript Fold Change” value was 2.05. The “Plxnc1 transcript Fold Change” value was -2.05, the “Pnpla3 transcript Fold Change” value was -2.9 and the “Podn transcript Fold Change” value was 2.29. The “Ppp1r3c transcript Fold Change” value was -2.05, the “Prox1 transcript Fold Change” value was 2.06 and the “Psat1 transcript Fold Change” value was -2.69. For the same compound, the “Ptgs2 transcript Fold Change” value was -4.87, the “Raet1e transcript Fold Change” value was -2.18 and the “Raet1d transcript Fold Change” value was -2.32. The “Ralbp1 transcript Fold Change” value was 3.61, the “Rhob transcript Fold Change” value was -3.06 and the “Rrs1 transcript Fold Change” value was -2.27. The “Saa4 transcript Fold Change” value was 5.34, the “Sart3 transcript Fold Change” value was 2.37 and the “Sbk1 transcript Fold Change” value was 2.54. For the same compound, the “Sec11c transcript Fold Change” value was -2.18, the “Senp1 transcript Fold Change” value was 3.54 and the “Serpina7 transcript Fold Change” value was -2.84. The “Serpine1 transcript Fold Change” value was -3.49, the “Slc16a1 transcript Fold Change” value was -2.37 and the “Slc17a8 transcript Fold Change” value was -2.06. For the same compound, the “Slc39a8 transcript Fold Change” value was -2.02, the “Slc40a1 transcript Fold Change” value was -2.28 and the “Slc46a3 transcript Fold Change” value was 2.23. The “Spon2 transcript Fold Change” value was -3.19, the “Sqle transcript Fold Change” value was -2.72 and the “Stfa3 transcript Fold Change” value was -9.86. The “Taok3 transcript Fold Change” value was 2.06, the “Tk1 transcript Fold Change” value was 2.3 and the “Tmx1 transcript Fold Change” value was 2.28. The “Tnf transcript Fold Change” value was -2.39, the “Tnfrsf23 transcript Fold Change” value was -2.38 and the “Tnnc1 transcript Fold Change” value was 2.09. The “Tsku transcript Fold Change” value was 2.15, the “Ubqln2 transcript Fold Change” value was -2.65 and the “Uhrf1 transcript Fold Change” value was -2.03. For the same compound, the “Upp2 transcript Fold Change” value was 2.5, the “Usp2 transcript Fold Change” value was 3.94 and the “Wrn transcript Fold Change” value was 3.79. The “Zfp101 transcript Fold Change” value was -2.1 and the “Zfp445 transcript Fold Change” value was 2.82.
